Data published in PubChem BioAssay (NCI).
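Test compounds were applied to cells in 96-well plates for 48 hours at 5 doses. GI50 is the concentration that inhibits growth by half. TGI denotes the concentration required for complete inhibition of growth.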

Assays:
Test in all cases: NCI anticancer screen, dose series, 48 h
[1] = system: HCC-2998 colon
[2] = system: HOP-92 NSCLC
[3] = system: LOX IMVI melanoma
[4] = system: MOLT-4 leukemia
[5] = system: PC-3 prostate
[6] = system: SF-268 CNS
[7] = system: SN12C renal
[8] = system: EKVX NSCLC

Structure (SMILES)	GI50 [1]	TGI [1]	GI50 [2]	TGI [2]	GI50 [3]	TGI [3]	GI50 [4]	TGI [4]	GI50 [5]	TGI [5]	GI50 [6]	TGI [6]	GI50 [7]	TGI [7]	GI50 [8]	TGI [8]
CNCC#Cc1c(F)ccc2c1/C(=C/c1[nH]ccc1OC)C(=O)N2	0.398 µM	1.63 µM	0.669 µM	1.96 µM	0.142 µM	2.18 µM	0.132 µM	2.26 µM	0.32 µM	2.88 µM	0.279 µM	2.1 µM	0.118 µM	2.86 µM		
CCCC(=O)Nc1cc2c3c(c1)CCCN3CCC2		> 10 µM		> 10 µM		> 10 µM				> 10 µM		> 10 µM		> 10 µM		
Cc1nn(-c2ccc(Cl)cc2)c2nc3c(nc12)C(=O)c1ccccc1-3	> 100 µM	> 100 µM			> 100 µM	> 100 µM	> 100 µM	> 100 µM			> 100 µM	> 100 µM	> 100 µM	> 100 µM	> 100 µM	> 100 µM
COc1ccc(C(=O)/C=C/c2cc(-c3cc(OC)c(OC)c(OC)c3)n[nH]2)cc1OC	2.13 µM	3.78 µM			1.38 µM	2.76 µM	2.11 µM	5.56 µM	1.36 µM	2.8 µM	1.82 µM	3.96 µM	1.54 µM	3.13 µM		
O=C1OCC2=C1C(c1cccc(Br)c1)c1cc3c(cc1N2CCO)CCC3 (stereo not given)	0.13 µM	1.66 µM			0.119 µM	7.56 µM	0.262 µM	14.2 µM	0.0864 µM	7.1 µM	0.109 µM	6.47 µM	0.246 µM	6.9 µM	0.682 µM	19.5 µM
O=C(c1ccccc1Br)C(F)(F)F		> 100 µM				> 100 µM		> 100 µM		> 100 µM		> 100 µM		> 100 µM		> 100 µM
Cn1cc(-c2csc(-c3c[nH]c4ccc(F)cc34)n2)c2cnccc21	1.95 µM	3.66 µM	1.49 µM	3.09 µM					1.69 µM	3.61 µM	1.94 µM	3.58 µM	1.72 µM	3.22 µM	1.62 µM	3.3 µM
O=C(CSc1nc2ccccc2nc1-c1ccccc1)Nc1ccc(F)cc1	49.6 µM	> 100 µM	20.3 µM	58.1 µM	68 µM	> 100 µM			38.9 µM	> 100 µM	41.6 µM	> 100 µM	36.5 µM	> 100 µM	75 µM	> 100 µM
O=C(O)Cc1cc(Cl)ccc1O		> 100 µM		> 100 µM		> 100 µM				> 100 µM		> 100 µM		> 100 µM		> 100 µM
Cc1c2c(C#N)nccc2c(C)c2c1c1ccccc1n2Cc1ccccc1		> 100 µM		> 100 µM		> 100 µM				> 100 µM		> 100 µM		> 100 µM		> 100 µM
CN(C)CC[PH+](c1ccccc1)c1ccccc1.CN(C)CC[PH+](c1ccccc1)c1ccccc1.[Cl-].[Pd+2]	> 100 µM	> 100 µM	> 100 µM	> 100 µM	> 100 µM	> 100 µM			> 100 µM	> 100 µM	> 100 µM	> 100 µM	> 100 µM	> 100 µM	> 100 µM	> 100 µM
CN(C)C(n1cc2c(c1)-c1ccc(Cl)cc1C(c1ccccc1F)=NC2)n1cc2c(c1)-c1ccc(Cl)cc1C(c1ccccc1F)=NC2		> 100 µM				47.9 µM		> 100 µM		> 100 µM		> 100 µM		> 100 µM		> 100 µM
C=C(C)[C@@H]1CC[C@]2(C)[C@H](CC=C3[C@@H]4CC(C)(C)CC[C@]4(C(N)=O)CC[C@]32C)[C@@]1(C)CCC#N	4.02 µM	> 100 µM	2.37 µM	6.62 µM	3.69 µM	> 100 µM			2.37 µM	> 100 µM	5.28 µM	> 100 µM	1.84 µM	3.7 µM	3.6 µM	> 100 µM
O=C(CC1(O)C(=O)N(Cc2ccccc2)c2ccc(F)cc21)c1ccc(C(=O)NCC2CCC3(CC2)OOC2(CCCCC2)OO3)cc1 (stereo not given)	1.84 µM	3.92 µM	0.186 µM	0.378 µM	0.0771 µM	0.222 µM			0.99 µM	3.21 µM	1.31 µM	3.22 µM	1.73 µM	3.74 µM	0.412 µM	1.25 µM
COc1ccc(Nc2nnc(-c3cc(O)ccc3O)s2)cc1					25.7 µM	> 50 µM	6.5 µM	20.6 µM	34.4 µM	> 50 µM	16.3 µM	> 50 µM	7.73 µM	19.2 µM	> 50 µM	> 50 µM
O=C1C=CC(=O)c2cc3cc(CBr)ccc3cc21	6.16 µM	19.2 µM	3.18 µM	9.93 µM	1.44 µM	3.02 µM			3.85 µM	8.9 µM	9.4 µM	> 73.9 µM	0.741 µM	2.91 µM	24.1 µM	55.7 µM
